According to patent US4605651A, “Antibiotic amino acid derivatives of cephalosporins” (Kyoto Pharmaceutical Industries, Ltd., priority 1982, dated 1986):
Where a name gives a salt, the structure may show the parent alone.

Tests used:
[1] = design: species or system humans; conditions: human, in vivo, po, 480 min
From the text: In humans, oral administration of the cephalosporin derivatives according to the present invention led to urinary recovery of the corresponding unesterified cephalosporins at the recovery rates shown below in the table. Method of administration: A 125-mg (on the unesterified form basis) capsule was orally administered. Assay: Microbial method using Bacillus subtilis

[2] = Acute toxicity testing, oral, in mice; conditions: mouse, in vivo, aqueous solution, male ICR mice 5 weeks of age, n=3
Method: The results obtained in oral acute toxicity testing of the cephalosporin derivatives according to the present invention in mice are shown below.
Animals: Male mice (ICR, 5 weeks of age), n=3
Method of administration: The cephalosporin derivatives obtained in the above examples were dissolved in distilled water and the aqueous solutions were orally administered.

Row | Compound | Percent urinary recovery (Hour 0 to Hour 8) [1] [%] | LD50 [2] [mg/kg]
1 | Cn1nnnc1SCC1=C(C(=O)OCOC(=O)C(C)(C)C)N2C(=O)C(NC(=O)[C@H](OC(=O)CN)c3ccccc3)C2SC1 (stereo partly drawn) [Example 1, pivaloyloxymethyl 7-[D-O-(glycyl)mandelamido]-3-[(1-methyl-1H-tetrazol-5-yl)thiomethyl]-3-cephem-4-carboxylate hydrochloride] | 38.0 | 5000
2 | CC(=O)OC(C)OC(=O)C1=C(CSc2nnc(C)s2)CSC2C(NC(=O)[C@H](OC(=O)[C@H](C)N)c3ccccc3)C(=O)N12 (stereo partly drawn) [Example 2, 1-acetoxyethyl 7-[D-O-(L-alanyl)mandelamido]-3-[(5-methyl-1,3,4-thiadiazol-2-yl)thiomethyl]-3-cephem-4-carboxylate hydrochloride] | 35.2 | 
3 | CCOC(=O)OC(C)OC(=O)C1=C(CSc2nncs2)CSC2C(NC(=O)[C@H](OC(=O)[C@H](C)N)c3ccccc3)C(=O)N12 (stereo partly drawn) [Example 3, 1-ethoxycarbonyloxyethyl 7-[D-O-(L-alanyl)mandelamido]-3-[(1,3,4-thiadiazol-2-yl)thiomethyl]-3-cephem-4-carboxylate] | 37.0 | 
4 | Cc1nnc(SCC2=C(C(=O)OCOC(=O)C(C)(C)C)N3C(=O)C(NC(=O)[C@H](OC(=O)[C@@H](N)C(C)C)c4ccccc4)C3SC2)s1 (stereo partly drawn) [Example 6, Pivaloyloxymethyl 7-[D-O-(L-valyl)mandelamido]-3-[(5-methyl-1,3,4-thiadiazol-2-yl)thiomethyl]-3-cephem-4-carboxylate hydrochloride] | 36.0 | 
5 | Cc1nnc(SCC2=C(C(=O)OCOC(=O)C(C)(C)C)N3C(=O)C(NC(=O)[C@H](OC(=O)[C@@H]4CCCN4)c4ccccc4)C3SC2)s1 (stereo partly drawn) [Example 7, Pivaloyloxymethyl 7-[D-O-(L-prolyl)mandelamido]-3-[(5-methyl-1,3,4-thiadiazol-2-yl)thiomethyl]-3-cephem-4-carboxylate hydrochloride] | 41.0 | 5000
6 | Cc1nnc(SCC2=C(C(=O)OCc3oc(=O)oc3C)N3C(=O)C(NC(=O)[C@H](OC(=O)[C@H](C)N)c4ccccc4)C3SC2)s1 (stereo partly drawn) [Example 9, (5-Methyl-1,3-dioxolen-2-on-4-ylmethyl) 7-[D-O-(L-alanyl)mandelamido]-3-[(5-methyl-1,3,4-thiadiazol-2-yl)thiomethyl]-3-cephem-4-carboxylate hydrochloride] | 41.0 | 5000
7 | CC(=O)OC(C)OC(=O)C1=C(CSc2nnc(C)s2)CSC2C(NC(=O)[C@H](OC(=O)[C@@H]3CCCN3)c3ccccc3)C(=O)N12 (stereo partly drawn) [Example 17, 1-Acetoxyethyl 7-[D-O-(L-prolyl)mandelamido]-3-[(5-methyl-1,3,4-thiadiazol-2-yl)thiomethyl]-3-cephem-4-carboxylate hydrochloride] | 40.9 | 5000
